This is an account of results in patent US20130130991A1, “USE OF A PEPTIDE ENHANCING THE ABILITY OF RADIATION THERAPY TO KILL CANCER CELLS” (UNIVERSITE DE LAUSANNE, priority 2010, published 2013).

The subject of assay [1] is tumor growth. The following applies: cited from earlier work.
For assay [2], the system named is HCT116 xenografts. The assay is described as follows: Radio-sensitization in mice bearing HCT116 xenografts. Type of assay: in vivo. The settings on record: 1 mg/kg i.p. every day for 10 days, γ-irradiation 3 Gy 1 hour after injection, nu/nu mice. From the text: (§1) Immunodeficient mice bearing subcutaneous tumors allow easy access of the tumors to defined fractionated irradiation doses with minimal effect on surrounding tissues and without the need of anesthesia. This latter point is important because anesthesia can modify the response to radiation therapy (Denekamp, 1979) and anesthesia is generally not used in patients during radiotherapy.
(§2) HCT116 tumor cells, lacking or not p53, were grafted onto the back of female Swiss homozygous nu/nu mice leading to the development of subcutaneous tumors. Then, the immunodeficient mice bearing subcutaneous tumors were divided into four experimental groups as follows:
(§3) 1) Intraperitoneal PBS injections and no irradiation. 2) Intraperitoneal TAT-RasGAP317-326 injections (every day, 1 mg peptide per kg of mouse in 300 μl PBS) and no irradiation. 3) Intraperitoneal PBS injection and γ-irradiation (3 Gy). 4) Intraperitoneal TAT-RasGAP317-326 injections and γ-irradiation.
(§4) The treatments (i.e. peptide injections followed by irradiation) were performed every day for 10 days without interruption. γ-irradiation was performed 1 hour after the peptide injection. The size of the tumors was monitored 3 times a week. #: mice were sacrificed when the tumors reached a volume of about 800 mm^3.

In assay [3] the test system is HCT116 p53−/− tumors. The assay is described as follows: Radio-sensitization in mice bearing HCT116 p53-/- xenografts. The assay is classed as in vivo. The following applies: 1 mg/kg i.p. every day for 10 days, γ-irradiation 3 Gy 1 hour after injection, nu/nu mice.
From the text: as §1, §2, §3, §4

Assay [4] deals with HCT116p53−/− cells. Kind of assay: Clonogenic assay (CFA) after γ-irradiation, HCT116 p53-/-. The assay is classed as cell-based. The following applies: 20 μM peptide, γ radiation 0-8 Gray, colonies counted after two weeks. How it is done: (§5) One hundred HeLa cells or 500 HCT116p53^+/+ or 500 HCT116p53^−/− cells were seeded in 8.5 cm plates and after 24 hours later treated or not with TAT or TAT-RasGAP317-326 (20 μM) prior exposure to the various doses of γ radiation (0, 1, 2, 4, 6 or 8 Gray).
(§6) After two weeks, the culture medium was removed and the plates were gently washed with water. A crystal violet solution (0.5% crystal violet in 25% methanol) was then added to stain colonies and gently washed out with water. The number of colonies was then counted.
(§7) The clonogenic formation assay (CFA) was performed using cancer cell lines (HCT116 with or without p53) (FIG. 1A-B) and non-tumorigenic HaCaT cells (FIG. 1C) that were subjected to the various doses of γ radiation (0, 1, 2, or 4, Gray), in the presence or in absence of TAT-RasGAP317-326 (20 μM). The number of colonies was determined two weeks after irradiation.

Assay [5] has as its system tumor cells. The settings on record: cited from earlier work.
For assay [6], the system named is HaCaT cells. Kind of assay: Clonogenic assay (CFA) after γ-irradiation, non-tumorigenic HaCaT. Type of assay: cell-based. The settings on record: 20 μM peptide, γ radiation 0, 1, 2 or 4 Gray, colonies after two weeks. How it is done: as §6, §7
The test system of assay [7] is HCT116p53+/+ cells. Kind of assay: Clonogenic assay (CFA) after γ-irradiation, HCT116 p53+/+. The assay is classed as cell-based. The settings on record: 20 μM peptide, γ radiation 0-8 Gray, colonies counted after two weeks. How it is done:
as §5, §6, §7

Entries after “also recorded” stand apart in the source; their conditions may differ. Some results are limits rather than exact numbers.

On to “TAT-RasGAP317-326: HIV-TAT48-57 peptide conjugated to RasGAP317-326 (WMWVTNLRTD) with two glycine residues as spacer; cell permeable peptide (GRKKRRQRRRGGWMWVTNLRTD)”, for which the “ability of cisplatin and other genotoxins to inhibit tumor growth” value in assay [1] (combined with genotoxins) was “increases the ability of cisplatin and other genotoxins to inhibit tumor growth”. Also, the “dose still exerting genotoxin-sensitization on tumor growth, relative to lethal doses” value in assay [1] (mouse, in vivo) is reported as > 100 fold below the lethal doses. For the same substance, the “tumor growth / tumor volume of irradiated tumors” value in assay [2] was “significant growth delay and reduction in tumor volume”. Moreover, the “growth of irradiated HCT116 p53−/− tumors” value in assay [3] was “very efficiently hampered”. Also, the “efficacy of γ-irradiation-mediated cell killing (number of colonies)” value in assay [4] and in assay [7] was “increases the efficacy of γ-irradiation-mediated cell killing” in each case. Besides, the “sensitization of non-tumor cells to genotoxin-induced apoptosis” value in assay [5] (non-tumor cells) is “nor does it sensitize non-tumor cells”. Moreover, the “apoptosis of tumor cells by the peptide alone” value in assay [5] (peptide by itself) is given as “does not by itself modulate apoptosis of tumor cells”. In addition, in assay [5] (tumor cells with genotoxin), the “sensitization of tumor cells to genotoxin-induced death” value was “specifically sensitizes tumor cells to genotoxin-induced death”. Also, in assay [6], the “γ-radiation-sensitivity of non-cancer cells (number of colonies)” value is reported as “not in a non-cancer cell line; also recorded: no influence on the γ-radiation-sensitivity”.
